According to US20080182274A1, “MONITOR PROTEINS USABLE FOR ANALYZING EXPRESSION OF MEMBRANE PROTEINS” (National Institute of Advanced Industrial Science and …, priority 2007, published 2008):

Tested on: monitor protein expressed on the cell membrane
Experiment: Recovery of cell-membrane luminescence after Sulfo-NHS deactivation (intracellular transport of monitor protein)
Assay type: cell-based, Chinese hamster
Details: CHO-K1 cells expressing pCMV-DL-D3-CD8, 1 mM BFA, up to 6 hours after deactivation, FIG. 6
Experimental: The vector pCMV-DL-D3-CD8 prepared in Example 1 was introduced into an animal cell. Briefly, CHO-K1 cells were seeded on 6-well plates at 1=10^6 cells/well and cultured in D-MEM/Ham's F-12 medium (Wako Purechamical Industries) containing 10% FCS. After overnight culture at 37° C., 4 μg of pCMV-DL-D3-CD8 was added to each well and mixed with 250 μl of Opti-MEM serum-free medium (Gibco RRL) and reacted at room temperature for 5 min. Then, 10 μl of lipofectamine 2000 reacted in 250 μl of Opti-MEM serum-free medium at room temperature for 5 min was mixed with the cells to perform transfection in Opti-MEM serum-free medium. Then, the medium was exchanged for D-MEM/Ham's F-12 medium containing 10% FCS. […] Then, cells were counted, followed by preparation of a cell suspension with a cell density of 2×10^7 cells/ml.
By adding 0.5 mM Sulfo-NHS (Pierce) to the cell suspension, the monitor protein expressed on the cell membrane was inactivated. […] Cells were counted and arranged to give a density of 4×10^5 cells per 100 μl. […] To one aliquot, 2 μl of dinoflagellate-derived luciferin was added and the luminescence activity of the monitor protein expressed on the cell membrane was measured. Other aliquots were subjected to measurement of the amount of ATP-derived luminescence in order to examine whether the cell count is constant in individual samples taken at the above-indicated time points.

## C[C@H]1CCC/C=C/[C@@H]2C[C@H](O)C[C@H]2[C@H](O)/C=C/C(=O)O1 [BFA, Brefeldin A]
  luminescence derived from the membrane protein expressed on the cell membrane after deactivation treatment: luminescence was not recognized
